The values that follow are results of earlier work, collected in patent US7122568B1, “Use of low-dose PDT to inhibit restenosis” (QLT, Inc., priority 1999, dated 2006).

Series [1] has as its system porcine model. As to conditions: 0.3 mg/kg injected four hours prior to endothelial denudation; external irradiation 20 J/cm2 of 652 nm.
Series [2] relates to normal rabbit carotid arteries. Conditions: systemic administration 7 days after denudation, external irradiation two days later; five weeks after PDT.
In series [3] the test system is rabbit arteries injured by endothelial denudation. As to conditions: systemic administration after injury, 120 or 240 J/cm2 irradiation 24 hours later.
Series [4] has as its system rat carotid artery.
Series [5] has as its system normal rat carotid arteries. Conditions: systemic administration, external irradiation; PDT on days 2 and 7 after denudation, read on day 14.

Read-outs that look alike come from different tables or passages of the source.

Turning to `Oc1cccc(-c2c3nc(c(-c4cccc(O)c4)c4ccc([nH]4)c(-c4cccc(O)c4)c4nc(c(-c5cccc(O)c5)c5ccc2[nH]5)CC4)C=C3)c1` [m-THPC, metatetrahydroxyphenyl-chlorin], the “effect on intimal area” value in series [1] is reported as “significant increase of intimal area”.
Consider Photofrin™, for which, in series [2], the “effect on induced IH response (ratio of IH area to normalized area enclosed by the IEL)” value is “effective in reducing the induced IH response”. Moreover, the “effect on IH” value in series [3] is reported as “prevention of IH”.
In the case of “benzoporphyrin derivative monoacid ring A [BPD-MA]”, the “effect on IH” value is “little effect on reducing IH” in series [4] (0.5 μg/ml local delivery, 50 and 100 J/cm2 of 690 nm (Stages I and II)); “induction of significant IH” in series [4] (0.5 μg/ml local delivery, 100 J/cm2 of 690 nm (Stage II)); “inhibit IH” in series [4] (25 μg/ml local delivery, 50 J/cm2 of 690 nm (Stage III)). The photothrombosis result in series [4] (25 μg/ml local delivery, 100 J/cm2 of 690 nm (Stage IV)) is “induce photothrombosis”.
“chloraluminum-sulfonated phthalocyanine [CASPc]”: the “effect on induced IH response” value in series [5] is listed as “effective in inhibiting the induced IH response”.
